From patent US20260035338A1, “AMINO LIPID COMPOUND AND LIPID NANOPARTICLE FOR DELIVERING BIOACTIVE INGREDIENT” (SHENZHEN SHENXIN BIOTECHNOLOGY CO., LTD., priority 2022, published 2026)

Assays:
[1] = test system: immune cell populations in the spleen and PBMC; experiment: Delivery efficiency of eGFP mRNA LNP to immune cell populations in spleen and peripheral blood (flow cytometry); format: in vivo; details: eGFP mRNA encapsulating LNP, intravenous, C57BL/6 mice, 12 hours, flow cytometry (FIG. 6 to 7)
Description: C57BL/6 mice (3 mice per group) were intravenously injected with eGFP mRNA encapsulating LNP. After 12 hours, the mice were dissected, and the spleen and peripheral blood, were collected to prepare single-cell suspensions of various tissues and organs. After blocking with Fc blocking antibodies and surface staining with fluorescent-labeled antibodies, flow cytometry was conducted to analyze the expression levels of eGFP in various immune cell populations to confirm the delivery efficiency of lipid nanoparticles comprising different amino lipid compounds to immune cell populations in different tissues and organs.
“Blank” in FIG. 6 and FIG. 7 refers to the control group injected with 100 μL Tris buffer.

[2] = test system: BALB/c mice; experiment: In vivo delivery of Fluc mRNA-encapsulating LNP formulations, luciferase signal by In Vivo Imaging System (IVIS); details: tail vein injection (IV) 70 μL, female BALB/c mice, 6 hours after injection; for Average number of photons (Total in-vivo flux): LNP formulation encapsulating Fluc mRNA (Lipid:DSPC:CHO-HP:M-DMG-2000 48:10:40.5:1.5); for Average number of photons (Liver) / Average number of photons (Spleen): LNP formulation encapsulating Fluc mRNA
Description: Animal preparation: Female BALB/c mice of 6-8 weeks old were selected and raised in an SPF grade breeding room. Animal testing was conducted in strict accordance with the guidelines of national health institutions and animal ethics requirements.
In vivo Delivery: prior to injection of the test LNP formulation, the LNP formulation was gently and repeatedly inverted to thoroughly mix the sample of the formulation. A corresponding amount of the LNP formulation was aspirated with a 1 ml insulin syringe, and the LNP formulation was injected by tail vein injection (IV), with 3 mice in duplicate per formulation. Each mouse was injected with 70 μL of the corresponding LNP formulation encapsulating the luciferase mRNA (Fluc mRNA) prepared in Experimental Example 1.
6 hours after injection of LNP formulations, mice were injected with 200 μL D-Luciferin luciferase developing substrate (Catalog No. 122799; Manufacturer: Perkin Elmer). After the substrate was injected, the mice were anesthetized with isoflurane inhalation, and the injection time of luciferase developing substrate was recorded.
The encapsulation efficiency of the lipid nanoparticle encapsulating luciferase mRNA (Fluc mRNA) with a representative amino lipid compound and the fluorescence expression intensity induced by the same are shown in Table 4, with the LNP formulation containing SM-102, 1001 or ALC-0315 as a control LNP formulation. The preparation method of the control LNP formulation was basically the same as that of the LNP formulations in Experimental Example 1, with the difference lying in that the amino lipid compounds of the present disclosure were replaced with SM-102, 1001 or ALC-0315 in the preparation of the control LNP formulation.

Row | SMILES | delivery efficiency to immune cell populations (eGFP expression) [1] | Average number of photons (Total in-vivo flux) [2] | Average number of photons (Liver) [2] | Average number of photons (Spleen) [2]
1 | CCCCCCOC(CCCOC(=O)CCCCCCCC(CCCCCCCC(=O)OCCCC(OCCCCCC)OCCCCCC)OC(=O)OCCCN(C)C)OCCCCCC [compound 2041] | different delivery preferences to different immune cells | 2.08E+08 | 4.16E+07 | 1.07E+07
2 | CCCCCCOC(CCCOC(=O)CCCCCC(CCCCCC(=O)OCCCC(OCCCCCC)OCCCCCC)OC(=O)OCCCN(C)C)OCCCCCC [compound 2039] | different delivery preferences to different immune cells | 2.05E+08 | 4.26E+07 | 3.75E+07
3 | CCCCCCOC(CCCOC(=O)CCCCCC(CCCCCC(=O)OCCCC(OCCCCCC)OCCCCCC)OC(=O)OCCCN(CC)CC)OCCCCCC [compound 2043] | different delivery preferences to different immune cells | 1.64E+08 | 2.59E+07 | 1.07E+07
4 | CCCCCCOC(CCCOC(=O)CCCCCCCCC(CCCCCCCCC(=O)OCCCC(OCCCCCC)OCCCCCC)OC(=O)OCCCN(CC)CC)OCCCCCC [compound 382] | different delivery preferences to different immune cells | 5.28E+07 | 6.78E+06 | 1.88E+05
5 | CCCCCCCC#CCOC(CCCOC(=O)CCCCCCCCC(CCCCCCCCC(=O)OCCCCCCCCCCOC)OC(=O)OCCCN(CC)CC)OCC#CCCCCCCC (stereo not shown) [compound 439] | – | 5.87E+07 | 1.25E+07 | 1.96E+06
6 | CCCCCCCOC(CCCOC(=O)CCCCCCCCC(CCCCCCCCC(=O)OCCCC(OCCCCCCC)OCCCCCCC)OC(=O)OCCCN(CC)CC)OCCCCCCC [compound 383] | – | 6.10E+07 | 8.57E+06 | 1.53E+06
7 | CCCCCCOC(CCCOC(=O)CCCCCCCCC(CCCCCCCCC(=O)OCCCC(OCCCCCC)OCCCCCC)OC(=O)OCCCN(C)C)OCCCCCC [compound 388] | different delivery preferences to different immune cells | 1.94E+08 | 3.66E+07 | 1.34E+06
8 | CCCCCCOC(CCCOC(=O)CCCCC(CCCCC(=O)OCCCC(OCCCCCC)OCCCCCC)OC(=O)OCCCN(CC)CC)OCCCCCC [compound 2042] | different delivery preferences to different immune cells | – | – | –
9 | CCCCCCCCC(CCCCCCCC)OC(=O)CCCCCCCOC(=O)CCCCCCCCC(CCCCCCCCC(=O)OCCCC(OCCCCCC)OCCCCCC)OC(=O)OCCCN(CC)CC (stereo not shown) [compound 434] | – | 2.50E+07 | 3.52E+06 | 1.40E+05
10 | CCCCCCCCOC(CCCOC(=O)CCCCCCCCC(CCCCCCCCC(=O)OCCCC(OCCCCCCC)OCCCCCCC)OC(=O)OCCCN(CC)CC)OCCCCCCCC (stereo not shown) [compound 868] | – | 3.04E+07 | 5.35E+06 | 1.74E+05
11 | CCCCC/C=C\C/C=C\CCCCCCCC(=O)OCC(COC(=O)OCCCC(OCCCCCCCC)OCCCCCCCC)COC(=O)OCCCN(CC)CC (stereo not shown) [compound 1246] | – | 4.92E+07 | 6.85E+06 | 3.83E+06
12 | CCCCCCCOC(CCCOC(=O)CCCCCCCCC(CCCCCCCCC(=O)OCCCC(OCCCCCC)OCCCCCC)OC(=O)OCCCN(CC)CC)OCCCCCCC (stereo not shown) [compound 865] | – | 4.34E+07 | 8.60E+06 | 3.25E+05
13 | CCCCC/C=C\C/C=C\CCCCCCCC(=O)OCC(COCCCCC(OCCCCCCCC)OCCCCCCCC)COC(=O)OCCCN(CC)CC (stereo not shown) [compound 1248] | – | 8.20E+07 | 1.79E+07 | 3.48E+06
14 | CCCCCCCCCOC(CCCOC(=O)CCCCCCCCC(CCCCCCCCC(=O)OCCCC(OCCCCCCCCC)OCCCCCCCCC)OC(=O)OCCCN(C)C)OCCCCCCCCC [compound 849] | – | 2.67E+07 | 4.12E+06 | 1.82E+05
15 | CCCCCCOCCCCOC(=O)CCCCCCCCC(CCCCCCCCC(=O)OCCCC(OCCCCCC)OCCCCCC)OC(=O)OCCCN(CC)CC (stereo not shown) [compound 440] | – | 2.30E+08 | 3.22E+07 | 2.14E+06
16 | CCCCCCOC(CCCOC(=O)CCCCCCCCC(CCCCCCCCC(=O)OCCCC(OCCCCCC)OCCCCCC)OC(=O)OCCCN1CCCC1)OCCCCCC [compound 396] | – | 1.85E+08 | 3.24E+07 | 9.78E+05
17 | CCCCCCOC(CCCCCOC(=O)CCCCCCCCC(CCCCCCCCC(=O)OCCCCCC(OCCCCCC)OCCCCCC)OC(=O)OCCCN(CC)CC)OCCCCCC [compound 389] | – | 2.99E+07 | 4.14E+06 | 8.58E+04
18 | CCCCCCCOC(CCCOC(=O)CCCCCCCCC(CCCCCCCCC(=O)OCCCC(OCCCCCCC)OCCCCCCC)OC(=O)OCCCN(C)C)OCCCCCCC [compound 490] | – | 2.65E+07 | 3.68E+06 | 5.06E+05
19 | CCC/C=C\COC(=O)CCCOC(=O)CCCCCCCCC(CCCCCCCCC(=O)OCCCC(OC/C=C\CCC)OC/C=C\CCC)OC(=O)OCCCN(CC)CC (stereo not shown) [compound 438] | – | 5.78E+07 | 8.47E+06 | 1.07E+06
20 | CCCCCCCCC(=O)OCCCCCCCCOC(=O)CCCCCCCCC(CCCCCCCCC(=O)OCCCC(OCCCCCC)OCCCCCC)OC(=O)OCCCN(CC)CC (stereo not shown) [compound 441] | – | 3.09E+07 | 5.62E+06 | 5.52E+05
21 | CCCCCCOC(CCCOC(=O)OCCCCCCCCCC(CCCCCCCCCOC(=O)OCC(OCCCCCC)OCCCCCC)OC(=O)OCCCN(CC)CC)OCCCCCC (stereo not shown) [compound 457] | – | 1.43E+07 | 1.55E+06 | 2.70E+06
22 | CCCCCCCOC(CCCOC(=O)CCCCCCCCC(CCCCCCCCC(=O)OCCCC(OCCCCC)OCCCCC)OC(=O)OCCCN(C)C)OCCCCCCC (stereo not shown) [compound 851] | – | 1.28E+08 | 2.21E+07 | 1.93E+06
23 | CCCCCOC(CCCOC(=O)CCCCCCCCC(CCCCCCCCC(=O)OCCCC(OCCCCC)OCCCCC)OC(=O)OCCCN(CC)CC)OCCCCC [compound 387] | – | 6.66E+07 | 7.15E+06 | 6.77E+05
24 | CCCCCCCCOC(CCCOC(=O)CCCCCCCCC(CCCCCCCCCNC(=O)OCC(OCCCCCC)OCCCCCC)OC(=O)OCCCN(CC)CC)OCCCCCCCC (stereo not shown) [compound 458] | – | 1.29E+08 | 2.69E+07 | 2.60E+06
25 | CCCCCCOC(CCCOC(=O)CCCCCC(CCCCCC(=O)OCCCC(OCCCCCC)OCCCCCC)OC(=O)OCCCN(CC)CC)OCCCCCC [compound 2045] | different delivery preferences to different immune cells | 5.83E+07 | 8.90E+06 | 1.89E+06
26 | CCCCCCOC(CCCOC(=O)CCCCCCC(CCCCCCC(=O)OCCCC(OCCCCCC)OCCCCCC)OC(=O)OCCCN(CC)CC)OCCCCCC [compound 2044] | – | 4.94E+07 | 6.90E+06 | 1.18E+06
27 | CCCCCCCCC(=O)OCCCCCCCCOC(=O)CCCCCCCCC(CCCCCCCCC(=O)OCCCC(OCCCCCC)OCCCCCC)OC(=O)OCCCN(CC)CC (stereo not shown) [compound 433] | – | 2.56E+07 | 3.83E+06 | 2.44E+05
